The structures appear in SMILES notation.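 Tested at 5 concentrations; 48 h exposure; 96-well plates; endpoints linearly interpolated, else capped at highest concentration. TGI is the concentration that stops growth completely.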

Test systems include SF-268 CNS; LOX IMVI melanoma; HS 578T breast; SK-MEL-28 melanoma; MCF7 breast; OVCAR-4 ovarian; KM12 colon; NCI-H23 lung; NCI-H522 lung; CCRF-CEM leukemia; HT29 colon; HL-60(TB) leukemia; U251 CNS; SK-MEL-2 melanoma; 786-0 renal.
Common to all, as to assay: NCI-60 cell line screen, 48 h

As for `Cc1cc(Cl)ccc1NC(=O)/C(CC(=O)CC(c1ccccc1)c1c(O)c2ccccc2oc1=O)=N\O` (configuration not stated), the TGI in the assay on SF-268 CNS, in the assay on LOX IMVI melanoma, in the assay on HS 578T breast, in the assay with SK-MEL-28 melanoma, in the assay on MCF7 breast and in the assay on OVCAR-4 ovarian was above 100 µM each time. For the same molecule, the TGI in the assay on KM12 colon, with NCI-H23 lung, in the assay with NCI-H522 lung, in the assay on CCRF-CEM leukemia, in the assay with HT29 colon and in the assay with HL-60(TB) leukemia was above 100 µM in each case. The TGI in the assay on U251 CNS, with SK-MEL-2 melanoma and in the assay on 786-0 renal was above 100 µM each time.

On to `O=c1c2cc([N+](=O)[O-])cnc2sn1-c1ccc(Oc2ccccc2)cc1`, for which the TGI in the assay with SF-268 CNS was above 100 µM; in the assay with LOX IMVI melanoma, above 100 µM; with HS 578T breast, 96.5 µM; in the assay with SK-MEL-28 melanoma, above 100 µM; in the assay on MCF7 breast it was above 100 µM; in the assay on OVCAR-4 ovarian, above 100 µM. Besides, the TGI with KM12 colon is above 100 µM; with NCI-H23 lung, above 100 µM; in the assay on NCI-H522 lung, 34.1 µM; with CCRF-CEM leukemia it was above 100 µM; with HT29 colon it was above 100 µM; in the assay with HL-60(TB) leukemia it was above 100 µM. The TGI in the assay on U251 CNS, in the assay on SK-MEL-2 melanoma and with 786-0 renal was above 100 µM in each case.

As for `O=c1oc2ccccc2c(O)c1C(c1ccc2ccccc2c1)c1c(O)c2ccccc2oc1=O`, the TGI in the assay with SF-268 CNS is 50.8 µM; in the assay on LOX IMVI melanoma it was above 100 µM; in the assay with HS 578T breast it was 70.6 µM; in the assay on SK-MEL-28 melanoma, 80.1 µM; with MCF7 breast it was above 100 µM; with OVCAR-4 ovarian it was above 100 µM. Besides, the TGI in the assay with KM12 colon was 40 µM; in the assay on NCI-H23 lung, 68.8 µM; with NCI-H522 lung, 48.5 µM; in the assay on CCRF-CEM leukemia, above 100 µM; in the assay on HT29 colon, 33.8 µM; with HL-60(TB) leukemia, 75.5 µM. The figures for the TGI in the assay on U251 CNS, in the assay on SK-MEL-2 melanoma and with 786-0 renal were 39.2 µM, above 100 µM and 74.7 µM, respectively.

In the case of `CCCN(CCC)C(=S)N/N=C/c1cccc(C)n1`, the TGI with SF-268 CNS was 15.1 µM; in the assay with LOX IMVI melanoma, 15.6 µM; in the assay with HS 578T breast it was above 100 µM; in the assay on SK-MEL-28 melanoma, 91.3 µM; with MCF7 breast, 0.67 µM; in the assay with OVCAR-4 ovarian it was 3.21 µM. Besides, the TGI was 12.4 µM with KM12 colon; above 100 µM in the assay with NCI-H23 lung; 2.51 µM in the assay on NCI-H522 lung; 0.275 µM with CCRF-CEM leukemia; above 100 µM in the assay on HT29 colon; 0.384 µM with HL-60(TB) leukemia. The TGI is above 100 µM in the assay on U251 CNS, 26.4 µM in the assay with SK-MEL-2 melanoma and 1.37 µM with 786-0 renal.

As for `Cn1c(=S)[nH]c2c(Cl)cc(Cl)cc2c1=O`, the TGI in the assay on SF-268 CNS, in the assay with LOX IMVI melanoma, in the assay with HS 578T breast, in the assay on SK-MEL-28 melanoma, with MCF7 breast and in the assay with OVCAR-4 ovarian was above 100 µM each time. In addition, the TGI with KM12 colon is above 100 µM; in the assay with NCI-H23 lung, above 100 µM; in the assay on NCI-H522 lung, above 100 µM; with CCRF-CEM leukemia, 64.7 µM; with HL-60(TB) leukemia it was 78.8 µM; in the assay on U251 CNS, above 100 µM. For the same molecule, the TGI in the assay with SK-MEL-2 melanoma and in the assay with 786-0 renal was above 100 µM each time.

Regarding `COc1c(C(CC(C)C)OC(C)=O)ccc2c1C(=O)OCc1cc(C)cc(O)c1O2` (configuration not stated), the TGI in the assay on SF-268 CNS was 27.9 µM; in the assay with LOX IMVI melanoma it was 27.8 µM; in the assay with HS 578T breast it was 50.4 µM; in the assay on SK-MEL-28 melanoma it was 29.4 µM; with MCF7 breast it was 25.6 µM; in the assay with OVCAR-4 ovarian, 27.1 µM. In addition, the TGI is 35.4 µM in the assay with KM12 colon; 23.3 µM in the assay on NCI-H23 lung; 26.2 µM with NCI-H522 lung; above 100 µM with CCRF-CEM leukemia; 32.2 µM in the assay on HT29 colon; above 100 µM in the assay on HL-60(TB) leukemia. Besides, the TGI in the assay with U251 CNS is 28.1 µM; with SK-MEL-2 melanoma, 33.4 µM; with 786-0 renal it was 29.2 µM.

As for `O=c1[nH]c2nccn2c(Cl)c1Br`, the TGI in the assay with SF-268 CNS is 49.1 µM; in the assay with LOX IMVI melanoma, 34.4 µM; in the assay with HS 578T breast, 66 µM; in the assay on SK-MEL-28 melanoma, 36 µM; in the assay on MCF7 breast, above 100 µM; in the assay with OVCAR-4 ovarian it was 34.9 µM. Also, the TGI was above 100 µM with KM12 colon; 36.3 µM in the assay on NCI-H23 lung; 29.8 µM in the assay on NCI-H522 lung; 46.7 µM in the assay with CCRF-CEM leukemia; 48.8 µM in the assay on HT29 colon; 33.5 µM in the assay on HL-60(TB) leukemia. For the same molecule, the TGI with U251 CNS is 34.4 µM; with SK-MEL-2 melanoma, 16.3 µM; in the assay with 786-0 renal, above 100 µM.

Turning to `CC(=O)NNc1nc(C)c(C(/C=C/c2ccccc2O)=N/NC(=O)c2ccncc2)s1`, the TGI in the assay on SF-268 CNS, in the assay with LOX IMVI melanoma, in the assay with HS 578T breast, with SK-MEL-28 melanoma, with MCF7 breast and in the assay on OVCAR-4 ovarian was above 100 µM throughout. In addition, the TGI with KM12 colon, in the assay with NCI-H23 lung, in the assay with NCI-H522 lung, with CCRF-CEM leukemia, in the assay on HT29 colon and with HL-60(TB) leukemia was above 100 µM in each case. Also, the TGI in the assay on U251 CNS, in the assay on SK-MEL-2 melanoma and in the assay with 786-0 renal was above 100 µM in each case.

Regarding `c1ccc2c(c1)n1c(N3CCOCC3)[n+]3ccccc3c1c1c3cccc[n+]3c(N3CCOCC3)n21`, the TGI was 68.2 µM in the assay on SF-268 CNS; above 100 µM in the assay on LOX IMVI melanoma; above 100 µM with HS 578T breast; above 100 µM in the assay on SK-MEL-28 melanoma; above 100 µM with MCF7 breast; above 100 µM in the assay on OVCAR-4 ovarian. For the same molecule, the TGI with KM12 colon, with NCI-H23 lung, in the assay on NCI-H522 lung, in the assay on CCRF-CEM leukemia, with HL-60(TB) leukemia and in the assay with U251 CNS was above 100 µM throughout. Besides, the TGI with SK-MEL-2 melanoma and in the assay with 786-0 renal was above 100 µM each time.

For `COc1ccccc1NC(=S)Nc1cccc(C)n1`, the TGI with SF-268 CNS, in the assay with LOX IMVI melanoma, with HS 578T breast, in the assay on SK-MEL-28 melanoma, with MCF7 breast and in the assay with OVCAR-4 ovarian was above 100 µM throughout. The TGI in the assay on KM12 colon was above 100 µM; in the assay on NCI-H522 lung, 45.9 µM; in the assay on CCRF-CEM leukemia, above 100 µM; with HT29 colon, above 100 µM; with HL-60(TB) leukemia it was above 100 µM; in the assay with U251 CNS, above 100 µM. In addition, the TGI in the assay with SK-MEL-2 melanoma and in the assay with 786-0 renal was above 100 µM each time.

Values taken from PubChem BioAssay (NCI).
